How the values were obtained:
[1] = tested on: St1-CholA/F-St2-AmpA/Rev primA (system A) (DNA, aptamer) ACCTGGGGGAGTA/CCAACCGTGAAAAGATGATGGTGCGGAGGAAGGTCTTAGGTCTATCCCGATGCC/GGCATCGGGATAGACCTAAG; assay: capillary electrophoresis with LIF (MEKC); settings: 50 mM NaCl, 10 mM MgCl2 (incubation); 25 mM NaCl (running buffer); Tris pH 7.5 (incubation), pH 7.8 (running), 0.5 mM Brij 35, 20 °C; 500-2000 μM adenosine
[2] = tested on: F-St1A/St2-AmpA split adenosine aptamer with primer regions (DNA, aptamer) ACCTGGGGGAGTA/CCAACCGTGAAAAGATGATGGTGCGGAGGAAGGTCTTAGGTCTATCCCGATGCC; assay: fluorescence anisotropy; settings: 50 mM NaCl, 10 mM MgCl2, 10 mM Tris pH 7.5, 25 °C, 10 nM F-St1A, 400 nM St2-AmpA
[3] = tested on: F-St1A/St2-AmpA-Rev primA duplex split adenosine aptamer (DNA, aptamer) ACCTGGGGGAGTA/CCAACCGTGAAAAGATGATGGTGCGGAGGAAGGTCTTAGGTCTATCCCGATGCC/GGCATCGGGATAGACCTAAG; assay: fluorescence anisotropy; settings: 50 mM NaCl, 10 mM MgCl2, 10 mM Tris pH 7.5, 25 °C, 10 nM F-St1A, 400 nM St2-AmpA-Rev primA duplex
[4] = tested on: F-St1A/St2 split adenosine aptamer (initial sandwich) (DNA, aptamer) ACCTGGGGGAGTA/TGCGGAGGAAGGT; assay: fluorescence anisotropy; settings: 50 mM NaCl, 10 mM MgCl2, 10 mM Tris pH 7.5, 25 °C, 10 nM F-St1A, 400 nM St2
[5] = tested on: St1-CholB/St2-AmpB/Rev primB (system B) (DNA, aptamer) ATACCTGGGGGAGTATATAAT/CACACAGGAAACAGCGTATGACAATTATAGCGGAGGAAGGTATCCGTAGCCCTATCTGGATTGC/GCAATCCAGATAGGGCTACGG; assay: capillary electrophoresis isolation with real-time PCR; settings: 25 mM NaCl, 5 mM MgCl2; 20 mM Tris pH 7.5, 0.5 mM Brij 35, 20 °C; adenosine up to 50 μM

- binding [1]: yes
- apparent Kd [2]: > 500 µM
- apparent Kd [3]: ~ 90 μM
- apparent Kd [4]: ~ 90 μM
- binding [5]: yes
Compound: Nc1ncnc2c1ncn2[C@@H]1O[C@H](CO)[C@@H](O)[C@H]1O
